Results from PMC3190963 (Journal of structural biology, 2011).

Molecular target: human UPP1 (hUPP1) (Homo sapiens, UniProt Q16831)
Assay: absorbance change at […] nm, uridine to uracil
Format: biochemical
Details: uridine and inorganic phosphate; reference for hUPP2 activity

Chain of human UPP1 (hUPP1) (Q16831 whole entry): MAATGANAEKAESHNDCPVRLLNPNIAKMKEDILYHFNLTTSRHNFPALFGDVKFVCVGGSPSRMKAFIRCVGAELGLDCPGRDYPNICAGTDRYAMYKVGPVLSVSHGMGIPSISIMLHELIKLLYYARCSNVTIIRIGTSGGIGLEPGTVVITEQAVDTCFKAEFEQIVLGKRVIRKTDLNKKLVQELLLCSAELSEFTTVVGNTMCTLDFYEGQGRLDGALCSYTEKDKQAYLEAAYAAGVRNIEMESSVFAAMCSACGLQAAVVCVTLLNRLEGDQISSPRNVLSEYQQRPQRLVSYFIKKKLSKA

How did the “absorbance change at 280 nm, uridine to uracil” value turn out when O=c1ccn([C@@H]2O[C@H](CO)[C@@H](O)[C@H]2O)c(=O)[nH]1 [uridine] was run?
Its value is “in vitro activity of recombinant hUPP2 and hUPP1 was compared”.
